Data published in patent US9439884B2, “Methods for the treatment of immune disorders” (Beth Israel Deaconess Medical Center, Inc., priority 2011, dated 2016).
“Also recorded” adds a separate entry of the source. Like-named read-outs stand apart in the source and are kept apart here. *1 amine or outer side, *2 acyl side, *3 side chain or, on linkers, in order; H or OH if unused. Where a SMILES comes first, the peptide text is derived from it. Where no end group is shown, it is not given here. [ ]: non-standard residue; d: D form. 15N‑Ala = Ala with single 15N label, C[C@H]([15NH][*:1])C(=O)[*:2]; pS = N[C@@H](COP(=O)(O)O)C(=O)O

Key:
PP2A = assay: Pin1 dephosphorylation in human PBMCs after TLR9 activation by CpG; format: cell-based; conditions: human PBMCs pretreated with 5 nM
Text: We have shown that in SLE T cells the message, protein and activity of PP2Ac is increased and is involved in their abnormal function. First, PP2Ac dephosphorylates pCREB and accounts for the decreased IL-2 production. Second, PP2Ac dephosphorylates the transcription factor Elf1 and decreases its ability to bind to the promoters of CD3zeta and FcRgamma genes causing suppression of the first and derepression of the second with significant repercussions in the composition of the CD3 complex in SLE T cells. Third, PP2Ac dephosphorylates (and activates) SP1, which binds to the promoter of IL-17A and promotes its expression. […] Moreover, Pin1 also was dephosphorylated in T cells isolated from CD2:PP2A transgenic mice that overexpresses PP2Ac in T cells developed in Dr. Tsokos laboratory, but not wild-type littermates (FIG. 25E). Therefore, it is reasonable to predict that increased PP2Ac activity may contribute to the dephosphorylation and activation of Pin1 in SLE. Alternatively, because calcineurin (CaN) can also dephosphorylate Pin1 in vitro (FIG. 25) and CaN inhibitors may have a place in the treatment of SLE, we will consider it as a viable alternative to PP2Ac.

Pin1 KO MEFs = assay: Anti-proliferative effect in Pin1 KO MEFs with or without Pin1 re-expression; format: cell-based, mouse
Pin1 [1] = biological target: T1, Pin1 (Homo sapiens, UniProt Q13526); assay: Pin1 PPIase (catalytic activity) assay in vitro; format: biochemical
Text: (§1) In this regard, recently, we identified specific and potent Pin1 catalytic peptidic inhibitors and used them to establish a robust and sensitive FP-based HTS to screen approved drugs and NIH Chemical and Genomics Center, which led us to successfully identify all trans retinoic acid (ATRA) and four other Pin1 inhibitors active in cells for further optimization including Cpd4 (FIG. 27A).
(§2) We developed a fluorescence polarization (FP)-based HTS using fluorescence labeled Pin1 peptidic inhibitor, pTide to identify Pin1 inhibitors. Our screening of selected compounds at the Harvard ICCB-L libraries identified the strongest hit to be cis-RA according to the Z-score (FIG. 31A). To confirm that RAs target Pin1, we examined cis-RA and trans-RA in vitro and in cells. […] Cellular Pin1 activity was also reflected by cyclin D1 levels (FIG. 31D), a known Pin1 biomarker.

Pin1 [2] = biological target: T1, Pin1; assay: Pin1 protein/mRNA levels and turnover in cells; format: cell-based
Text: as §2

T47D = assay: Cell growth inhibition, T47D; format: cell-based; conditions: breast cancer cell line T47D
Pin1 [3] = biological target: T2, Pin1 (Mus musculus, UniProt Q9QUR7); assay: Pin1 western and PPIase assay in IL-33-stimulated BM-derived eosinophils; format: cell-based; conditions: 100 ng/ml IL-33
T2 construct: endogenous in cells; host or cells: bone-marrow-derived eosinophils

SKBR3 = assay: Cell growth inhibition, SKBR3; format: cell-based; conditions: breast cancer cell line SKBR3
lupus prone mouse models = conditions: some lupus prone mouse models; cited from earlier work
BM-derived eosinophils = assay: IL-6 ELISA in IL-33-stimulated BM-derived eosinophils; format: cell-based; conditions: 100 ng/ml IL-33
pDCs = assay: Cytokine production of pDCs upon TLR9 activation by CpG; format: cell-based
cancer cells = assay: Pin1-dependent cancer cell growth; format: cell-based
Text: as §1

MCF-10A = assay: Cell growth, normal breast cells MCF-10A; format: cell-based
Pin1 [4] = biological target: T1, Pin1; assay: Fluorescence polarization (FP)-based HTS / displacement of labeled Pin1 peptidic inhibitor pTide; format: binding
Text: as §1, §2

Pin1 [5] = biological target: T1, Pin1; assay: Co-crystal structure of Pin1 and ATRA; format: binding
NZBWF1 mice = assay: Proteinuria in lupus-prone NZBWF1 mice (Bio-Rad assay); format: in vivo; conditions: female NZBWF1 mice, controlled release pellets, 3.5 months, vs placebo
Description: Female lupus-prone NZBWF1 mice were treated with placebo or ATRA for 3.5 months and proteinuria was evaluated by Bio-Rad assay.
Our objective here was to determine if the Pin1 inhibitor we have discovered, ATRA, offer a treatment benefit in preclinical models of SLE. To this end we have been treating NZBWF1 female mice for 3.5 months with controlled release ATRA pellets, which have been well established pharmacologically and which offer the advantage ease of delivery, reduced stress to subjects and controlled drug release. Each cohort has been pre-bleed and urine collected before the start of drug treatment. Subsequently, we have collected serum and urine samples monthly for evaluation of disease markers such as autoantibodies and proteinuria.

TLR9 = biological target: T3, TLR9 (Homo sapiens, UniProt Q9NR96); conditions: cited from earlier work
T3 sequence (Q9NR96 26-1032): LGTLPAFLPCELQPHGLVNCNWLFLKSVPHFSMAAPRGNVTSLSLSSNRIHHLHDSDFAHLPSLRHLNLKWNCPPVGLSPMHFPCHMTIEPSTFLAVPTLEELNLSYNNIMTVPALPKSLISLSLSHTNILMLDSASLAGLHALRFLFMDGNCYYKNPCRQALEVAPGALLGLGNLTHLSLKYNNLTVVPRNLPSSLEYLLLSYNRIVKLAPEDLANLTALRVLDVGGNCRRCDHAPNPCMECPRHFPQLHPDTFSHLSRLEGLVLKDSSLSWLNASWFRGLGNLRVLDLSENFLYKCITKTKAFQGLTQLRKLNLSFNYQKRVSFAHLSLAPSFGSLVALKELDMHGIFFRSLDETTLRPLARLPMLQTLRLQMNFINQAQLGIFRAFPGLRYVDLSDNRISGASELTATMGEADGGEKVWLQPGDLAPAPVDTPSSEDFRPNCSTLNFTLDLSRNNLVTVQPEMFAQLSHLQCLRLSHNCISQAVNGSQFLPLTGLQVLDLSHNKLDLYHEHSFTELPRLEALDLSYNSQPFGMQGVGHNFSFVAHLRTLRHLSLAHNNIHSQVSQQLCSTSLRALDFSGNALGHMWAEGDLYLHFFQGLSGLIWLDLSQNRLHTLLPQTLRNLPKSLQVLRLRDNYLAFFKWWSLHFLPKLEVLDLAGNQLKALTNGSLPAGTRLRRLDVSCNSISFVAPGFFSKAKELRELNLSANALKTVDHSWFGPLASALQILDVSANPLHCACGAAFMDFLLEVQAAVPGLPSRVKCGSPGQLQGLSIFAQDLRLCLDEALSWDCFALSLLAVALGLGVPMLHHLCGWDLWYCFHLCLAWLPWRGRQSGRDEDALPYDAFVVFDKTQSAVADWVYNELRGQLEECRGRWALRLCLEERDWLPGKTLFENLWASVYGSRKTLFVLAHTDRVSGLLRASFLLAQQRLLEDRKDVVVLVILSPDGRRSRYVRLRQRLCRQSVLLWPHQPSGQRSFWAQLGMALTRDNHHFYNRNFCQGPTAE

Pin1 WW domain = biological target: T4, Pin1 WW domain (Homo sapiens, UniProt Q13526); assay: 2D NMR (15N-1H HSQC) titration of 15N-WW domain with IRAK1 phosphopeptides; format: binding; conditions: chemical shift change of 15N-WW domain as a function of peptide concentration; read-out: dissociation constants (KD)
T4 construct: monitor the changes in the ^15N-WW domain induced by titration with phosphopeptide ligands
Text: To measure the Pin1 interaction with each of the implicated pSer-Pro motifs in IRAK1, we employed two-dimensional (2D) NMR spectroscopy to monitor the changes in the ^15N-WW domain induced by titration with phosphopeptide ligands. In a 2d ^15N-^1H HSQC spectrum of a protein (FIG. 3a), each backbone NH group is represented by a peak, whose position reflects the chemical environment of that NH bond. Ligand binding to the protein is detected by changes in peak positions (fast exchange) or by the appearance of new peaks (slow exchange) as ligand is added. WW binding at each distinct IRAK1 site was measured using phosphopeptides containing residues 126-136 (pSer131-P132), 140-150 ([…]), and 157-180 (pSer173-P174) of IRAK1.

Pin1 [6] = biological target: T1, Pin1; assay: 15N-1H Nzz exchange spectroscopy of Pin1-catalyzed cis-trans isomerization; format: biochemical; conditions: pS173P peptide bond; peptide 1 mM, Pin1 17 μM
Text: Because uncatalyzed cis-trans isomerization is a generally slow process (time constant minutes), the equilibrium between cis and trans isomers yields two distinct peaks for residues (such as A175) whose chemical environment differs in the two isomer states. […] The dependence of peak intensities on Nzz mixing time yields the cis-trans exchange rate. […] Based on peak intensities in the absence of Pin1, the pS173P trans:cis ratio is 85:15.

T1 sequence (Q13526 whole entry): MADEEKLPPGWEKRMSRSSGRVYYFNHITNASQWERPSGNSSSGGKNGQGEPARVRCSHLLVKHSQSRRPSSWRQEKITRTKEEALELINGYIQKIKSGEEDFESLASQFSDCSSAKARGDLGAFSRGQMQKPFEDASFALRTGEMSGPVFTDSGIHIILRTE
T2 sequence (Q9QUR7 whole entry): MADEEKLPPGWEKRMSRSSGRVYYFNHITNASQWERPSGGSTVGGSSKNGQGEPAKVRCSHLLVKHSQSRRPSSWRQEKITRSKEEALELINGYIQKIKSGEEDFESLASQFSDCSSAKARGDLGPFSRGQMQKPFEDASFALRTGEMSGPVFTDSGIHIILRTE
T4 sequence (Q13526 5-39 limits assumed): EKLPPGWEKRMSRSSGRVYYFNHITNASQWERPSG

For `C=C1[C@@H](O)[C@@H]2O[C@]3(CC[C@H](/C=C/[C@@H](C)[C@@H]4CC(C)=C[C@@]5(O[C@H](C[C@@](C)(O)C(=O)O)CC[C@H]5O)O4)O3)CC[C@H]2O[C@@H]1[C@@H](O)C[C@H](C)[C@H]1O[C@@]2(CCCCO2)CC[C@H]1C` [okadaic acid], which “Pin1 dephosphorylation after CpG” value (PP2A) is on record?
The value was “reversed”.

Which “sensitivity to anti-proliferative effects” value (Pin1 KO MEFs; Pin1 KO MEFs) does the source give for `CC1=C(/C=C/C(C)=C/C=C/C(C)=C/C(=O)O)C(C)(C)CCC1` [ATRA, all trans retinoic acid] here?
Its value is “much more resistant”.

What about the drug sensitivity (Pin1 KO MEFs; Pin1 KO MEFs with stable re-expression of Pin1 (not its inactive mutant)) of the same molecule?
Its drug sensitivity is “fully restored”.

What about the “inhibition of Pin1 catalytic (PPIase) activity” value (Pin1 [1]) of the same molecule?
Its value is “inhibited its catalytic activity”.

What about the “inhibition of Pin1 catalytic (PPIase) activity” value (Pin1 [1]; listed as trans-RA) of the same molecule?
The value was “Dose-dependant Pin1 inhibition; also recorded: inhibiting Pin1 PPIase assays”.

What about the Pin1 levels (Pin1 [2]; breast cancer cell lines SKBR3 and T47D) of the same molecule?
Its Pin1 levels is “reducing Pin1 levels”.

What about the “degradation of Pin1 and its substrate D1” value (Pin1 [2]; cancer cells) of the same molecule?
The value was “induced the degradation”.

What about the “inhibition of cell growth” value (T47D) of the same molecule?
Its value is “inhibiting cell growth”.

What about the “Pin1 activation (PPIase assay)” value (Pin1 [3]) of the same molecule?
Its value is “inhibited Pin1 activation”.

And the “Pin1 degradation (Pin1 western)” value (Pin1 [3])?
Its value is “induced Pin1 degradation”.

What about the “inhibition of cell growth” value (SKBR3) of the same molecule?
The value was “inhibiting cell growth”.

What about the SLE-related phenotypes (lupus prone mouse models) of the same molecule?
Its SLE-related phenotypes is “suppress SLE-related phenotypes”.

What about the IL-6 secretion (BM-derived eosinophils) of the same molecule?
Its IL-6 secretion is “inhibited”.

What about the “production of IL6” value (pDCs) of the same molecule?
Its value is “suppressed”.

And the “production of IL12” value (pDCs)?
The value was “suppressed”.

And the “production of TNF-α” value (pDCs)?
Its value is “suppressed”.

What about the “inhibition of Pin1-dependent cancer cell growth” value (cancer cells) of the same molecule?
Its value is “inhibited Pin1-dependent cancer cell growth”.

And the “effect on normal breast cells” value (MCF-10A)?
Its value is “without any effects”.

And the “Pin1 inhibition in FP assays” value (Pin1 [4]; compared with cis-RA)?
The value was “more potent Pin1 inhibition than cis-RA”.

What about the “competition with Pin1 catalytic peptidic inhibitors for binding to the Pin1 active site” value (Pin1 [4]; preliminary results) of the same molecule?
Its value is “effectively competed”.

What about the “binding site in co-crystal structure” value (Pin1 [5]) of the same molecule?
Its value is “bound to Pin1 active site”.

What about the proteinuria (NZBWF1 mice) of the same molecule?
The proteinuria was “significantly reduced”.

Which results are given for `CC1=C(/C=C/C(C)=C/C=C/C(C)=C\C(=O)O)C(C)(C)CCC1` [cis-RA, 13-cis retinoic acid]?
inhibition of Pin1 catalytic (PPIase) activity (Pin1 [1]): Dose-dependant Pin1 inhibition; hit ranking according to the Z-score (Pin1 [4]; screening of Harvard ICCB-L libraries): strongest hit

For `CCN(CCO)CCCC(C)Nc1ccnc2cc(Cl)ccc12` (stereo not drawn) [hydroxychloroquine], which “stimulation of TLR9” value (TLR9) is on record?
Its value is “inhibits stimulation of TLR9”.

Which Kd (Pin1 WW domain) does the source give for `CC(C)C[C@H](NC(=O)[C@H](CCCCN)NC(=O)[C@H](CCCNC(=N)N)NC(=O)[C@@H]1CCCN1C(=O)[C@H](COP(=O)(O)O)NC(=O)[C@H](Cc1c[nH]c2ccccc12)NC(=O)[C@H](C)NC(=O)[C@H](CCC(=O)O)NC(=O)[C@H](C)NC(=O)[C@@H](N)CCC(=O)O)C(=O)N1CCC[C@H]1C(=O)O` [126-136 (pSer131-P132)] (H-EAEAW[pS]PRKLP-OH) here?
Its Kd is 220 ± 15 µM.

Which “Pin1-catalyzed isomerization rate kex” value (Pin1 [6]) does the source give for “^15N-Ala175-UD157-180: IRAK1 UD157-180 phosphopeptide with a single 15N label at Ala175 (ELGLVPSPASLWPPPP[pS]P[15N‑Ala]PSSTK; not fully specified; also: other phosphorylation sites not given here; UniProt P51617 157-180, looked up, fragment)” here?
The value was 27 s⁻¹.
